For orientation: IC50 means the concentration that inhibits the measured activity by half.

A value given as a limit tells only on which side of the number the result lay.

The test deals with T1, human CD73 (Homo sapiens, UniProt P21589).
T1 sequence (P21589 27-549): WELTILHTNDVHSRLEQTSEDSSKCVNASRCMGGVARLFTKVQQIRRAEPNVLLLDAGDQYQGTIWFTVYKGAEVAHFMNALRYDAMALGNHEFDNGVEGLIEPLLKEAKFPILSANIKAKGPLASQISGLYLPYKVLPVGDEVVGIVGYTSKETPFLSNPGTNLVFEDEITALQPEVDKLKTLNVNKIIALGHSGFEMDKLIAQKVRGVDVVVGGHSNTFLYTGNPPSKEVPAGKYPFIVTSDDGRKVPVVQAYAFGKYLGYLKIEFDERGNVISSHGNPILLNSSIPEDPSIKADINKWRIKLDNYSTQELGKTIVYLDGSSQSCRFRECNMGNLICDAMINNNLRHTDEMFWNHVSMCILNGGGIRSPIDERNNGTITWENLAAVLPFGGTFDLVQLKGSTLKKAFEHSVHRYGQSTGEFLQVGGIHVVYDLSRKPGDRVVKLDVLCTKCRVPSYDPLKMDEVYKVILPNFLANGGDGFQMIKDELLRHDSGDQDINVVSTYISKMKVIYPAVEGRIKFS
The experiment in a line: Inhibition of Ecto-5′-nucleotidase (CD73) activity in CHO-CD73 cells, phosphate release from AMP. In kind it is cell-based. Conditions: CHO-K1 cells stably transfected with human CD73; 25 μM AMP; 50 minutes, 37° C.; read-out: Potency: CD73 IC50.
`N#Cc1ccc(Cn2nc(C(=O)O)cc2-c2cc(F)c3nnn(-c4ccc5[nH]c(=O)[nH]c5c4)c3c2)cc1` [Example 322]: the IC50 is above 1000 nM.
For the molecule `N#Cc1ccc(Cn2ncc(Cl)c2-c2ccc3nnn(-c4ccc5[nH]c(=O)[nH]c5c4)c3c2)cc1` [Example 323], the IC50 was 100 to 1000 nM.
In the case of `N#Cc1ccc(Cn2nccc2-c2cnc3c(c2)c(-c2ccc4[nH]c(=O)[nH]c4c2)nn3CCO)cc1` [Example 324] it was above 1000 nM.
With `COC(=O)Cn1nc(-c2ccc3[nH]c(=O)[nH]c3c2)c2cc(-c3ccnn3Cc3ccc(C#N)cc3)cnc21` [Example 325] the figure was above 1000 nM; with `N#Cc1ccc(Cn2ncc(Cl)c2-c2cc(F)c3nnn(-c4ccc5[nH]c(=O)[nH]c5c4)c3c2)cc1` [Example 326], 100 to 1000 nM; with `Cn1nc(-c2ccc3[nH]c(=O)[nH]c3c2)c2cc(-c3ccnn3Cc3ccc(C#N)cc3)ncc21` [Example 327], 100 to 1000 nM.
For the molecule `N#Cc1ccc(Cn2cccc2-c2cc(F)c3nnn(-c4ccc5[nH]c(=O)[nH]c5c4)c3c2)cc1` [Example 328], the IC50 is 100 to 1000 nM.
For the molecule `N#Cc1ccc(Cn2nccc2-c2cnc3c(F)nn(-c4ccc5[nH]c(=O)[nH]c5c4)c3c2)cc1` [Example 329], the half-maximal inhibitory concentration (IC50) was 100 to 1000 nM.
With `N#Cc1ccc(Cn2ncc(C#N)c2-c2cc(F)c3nnn(-c4ccc5[nH]c(=O)[nH]c5c4)c3c2)cc1` [Example 330] the figure was above 1000 nM; with `N#Cc1ccc(Cn2ncc(F)c2-c2cc(F)c3nnn(-c4ccc5[nH]c(=O)[nH]c5c4)c3c2)cc1` [Example 331], 100 to 1000 nM.
In the case of `Cn1c(=O)n(-c2ccc3cn[nH]c3c2)c2cc(-c3ccnn3Cc3ccc(C#N)cc3)cnc21` [Example 332], the IC50 is above 1000 nM.
As to `N#Cc1ccc(Cn2c(-c3cc(F)c4nnn(-c5ccc6[nH]c(=O)[nH]c6c5)c4c3)c[nH]c2=O)cc1` [Example 333], the IC50 fell in the range of 100 to 1000 nM.
On to `Cc1cnn(Cc2ccc(C#N)cc2)c1-c1cc(F)c2nnn(-c3ccc4[nH]c(=O)[nH]c4c3)c2c1` [Example 334], for which the IC50 was 100 to 1000 nM.
In the case of `N#Cc1ccc(Cn2nccc2-c2ccc3cnc(-c4ccc5[nH]c(=O)[nH]c5c4)n3c2)c(F)c1` [Example 335] it was above 1000 nM; in that of `N#Cc1ccc(Cn2nccc2-c2cnc3c(CO)nn(-c4ccc5[nH]c(=O)[nH]c5c4)c3c2)cc1` [Example 336], 100 to 1000 nM; in that of `N#Cc1ccc(Cn2nccc2-c2cnc3c(N)nn(-c4cc(F)c5[nH]c(=O)[nH]c5c4)c3c2)c(F)c1` [Example 337], 100 to 1000 nM.
With `N#Cc1ccc(Cn2nccc2-c2cc3c(cnn3-c3ccc4cn[nH]c4c3)c(=O)[nH]2)c(F)c1` [Example 338] the figure was 100 to 1000 nM; with `N#Cc1ccc(Cn2nccc2-c2cnc3c(N)nn(-c4cc5[nH]c(=O)[nH]c5cc4F)c3c2)c(F)c1` [Example 339], below 100 nM.
For the molecule `Cn1nc(-c2ccc3cn[nH]c3c2)c2cc(-c3ccnn3Cc3ccc(C#N)cc3)cnc21` [Example 341], the IC50 was 100 to 1000 nM.
Regarding `N#Cc1ccc(Cn2nccc2-c2cnc3c(c2)c(-c2ccc4cn[nH]c4c2)nn3CCc2ccccc2)cc1` [Example 342], the half-inhibitory concentration (IC50) is above 1000 nM.
Consider `N#Cc1ccc(Cn2nccc2-c2cc(F)c3nnn(-c4ccc5[nH][nH]c(=O)c5c4)c3c2)cc1` [Example 343], for which the IC50 fell in the range of 100 to 1000 nM.
`N#Cc1ccc(Cn2nccc2-c2cc(F)c3nnn(-c4ccc5c(CO)n[nH]c5c4)c3c2)cc1` [Example 344]: the IC50 lay within 100 to 1000 nM.
For the molecule `N#Cc1ccc(Cn2nccc2-c2cc(F)c3nnn(-c4ccc5c(N)n[nH]c5c4)c3c2)cc1` [Example 345], the IC50 fell in the range of 100 to 1000 nM.
Take `N#Cc1ccc(Cn2nccc2-c2cc3c(cn2)nnn3-c2ccc3c(=O)[nH][nH]c3c2)cc1` [Example 346]: the IC50 lay within 100 to 1000 nM.
In the case of `N#Cc1ccc(Cn2nccc2-c2cc(F)c3nnn(-c4ccc5c(CNS(N)(=O)=O)n[nH]c5c4)c3c2)cc1` [Example 347] it was above 1000 nM.
Take `N#Cc1ccc(Cn2nccc2-c2cc(F)c3nnn(-c4ccc5c(CC(=O)O)n[nH]c5c4)c3c2)cc1` [Example 348]: the IC50 is above 1000 nM.
In the case of `N#Cc1ccc(Cn2nccc2-c2cc(F)c3nnn(-c4ccc5c(CCO)n[nH]c5c4)c3c2)cc1` [Example 349] it was above 1000 nM.
`N#Cc1ccc(Cn2nccc2-c2cc(F)c3nnn(-c4ccc5c(=O)[nH][nH]c5c4)c3c2)cc1` [Example 350]: the IC50 was 100 to 1000 nM.
With `N#Cc1ccc(Cn2nccc2-c2cc(F)c3nnn(-c4ccc5c(CNC(=O)CN)n[nH]c5c4)c3c2)cc1` [Example 351] the figure was above 1000 nM; with `N#Cc1ccc(Cn2nccc2-c2cc3c(nnn3-c3ccc4cn[nH]c4c3)c(=O)[nH]2)cc1` [Example 352], below 100 nM; with `COCc1n[nH]c2cc(-n3nnc4c(F)cc(-c5ccnn5Cc5ccc(C#N)cc5)cc43)ccc12` [Example 353], above 1000 nM.
As to `N#Cc1ccc(Cn2nccc2-c2cc(F)c3nnn(-c4ccc(O)cc4)c3c2)cc1` [Example 354], the IC50 was above 1000 nM.
For `N#Cc1ccc(Cn2nccc2-c2cc(F)c3nnn(-c4ccc5c(COCCO)n[nH]c5c4)c3c2)cc1` [Example 355], the IC50 is above 1000 nM.
Consider `Cn1c(-c2ccnn2Cc2ccc(C#N)cc2)cc2c(nnn2-c2ccc3cn[nH]c3c2)c1=O` [Example 356], for which the IC50 was in the range of 100 to 1000 nM.
With `COc1nc(-c2ccnn2Cc2ccc(C#N)cc2)cc2c1nnn2-c1ccc2cn[nH]c2c1` [Example 357], the IC50 was in the range of 100 to 1000 nM.
For the molecule `Cc1nn(-c2ccc3cn[nH]c3c2)c2cc(-c3ccnn3Cc3ccc(C#N)cc3)[nH]c(=O)c12` [Example 358], the IC50 lay within 100 to 1000 nM.
On to `N#Cc1ccc(Cn2nccc2-c2cc3c(nnn3-c3ccc4[nH]c(=O)[nH]c4c3)c(=O)[nH]2)cc1` [Example 359], for which the half-inhibitory concentration (IC50) lay within 100 to 1000 nM.
Regarding `Cc1nn(-c2ccc3cn[nH]c3c2)c2cc(-c3ccnn3Cc3ccc(C#N)cc3)c[n+]([O-])c12` [Example 360], the IC50 fell in the range of 100 to 1000 nM.
On to `Cn1nc(-c2ccc3cn[nH]c3c2)c2cc(-c3ccnn3Cc3ccc(C#N)cc3)c[n+]([O-])c21` [Example 361], for which the IC50 is above 1000 nM.
As for `N#Cc1ccc(Cn2nccc2-c2cc3c(c(N)nn3-c3ccc4cn[nH]c4c3)[n+]([O-])c2)cc1` [Example 362], the IC50 fell in the range of 100 to 1000 nM.
Regarding `N#Cc1ccc(Cn2nccc2-c2cc3c(c[n+]2[O-])nnn3-c2ccc3cn[nH]c3c2)cc1` [Example 363], the IC50 lay in the range of 100 to 1000 nM.
Take `N#Cc1ccc(Cn2nccc2-c2cnc3c(N)nn(-c4cc5[nH]ncc5cc4F)c3c2)cc1` [Example 364]: the IC50 is below 100 nM.
With `N#Cc1ccc(Cn2nccc2-c2cc3c(c(N)nn3-c3ccc4[nH]c(=O)[nH]c4c3)[n+]([O-])c2)cc1` [Example 365], the IC50 is above 1000 nM.
In the case of `[O-][n+]1cc(Cl)ccc1Cn1nccc1-c1cc(Cl)c2nnn(-c3ccc4cn[nH]c4c3)c2c1` [Example 366] it was below 100 nM; in that of `N#Cc1ccc(Cn2nccc2-c2cc(F)c3nnn(-c4ccc5cn[nH]c5n4)c3c2)cc1` [Example 367], below 100 nM; in that of `O=c1[nH]c2ccc(-n3nnc4c(Cl)cc(-c5ccnn5Cc5ccc(Cl)c[n+]5[O-])cc43)cc2[nH]1` [Example 369], 100 to 1000 nM.
In the case of `CCc1nn(-c2ccc3cn[nH]c3c2)c2cc(-c3ccnn3Cc3ccc(C#N)cc3)cnc12` [Example 370], the IC50 was above 1000 nM.
With `N#Cc1ccc(Cn2nccc2-c2cnc3c(Cl)nn(-c4ccc5cn[nH]c5c4)c3c2)cc1` [Example 371] the figure was 100 to 1000 nM.
Turning to `N#Cc1ccc(Cn2nccc2-c2cc3c(nnn3-c3ccc4cn[nH]c4c3)[nH]c2=O)cc1` [Example 372], the IC50 was 100 to 1000 nM.
With `Fc1cc(-c2ccnn2C2CCCOC2)cc2c1nnn2-c1ccc2cn[nH]c2c1` (stereo not shown) [Example 373] the figure was above 1000 nM; with `CC(c1ccc(Cl)cn1)n1nccc1-c1cc(Cl)c2nnn(-c3ccc4cn[nH]c4c3)c2c1` (stereo not shown) [Example 374], 100 to 1000 nM.
In the case of `OC(Cn1nccc1-c1cc(F)c2nnn(-c3ccc4cn[nH]c4c3)c2c1)c1ccccc1` (stereo not shown) [Example 375], the IC50 is above 1000 nM.
Consider `N#Cc1ccc(Cn2nccc2-c2cnc3c(C(F)(F)F)nn(-c4ccc5cn[nH]c5c4)c3c2)cc1` [Example 376], for which the IC50 is above 1000 nM.
In the case of `CC(c1ccc(Cl)cn1)n1nccc1-c1cc(F)c2nnn(-c3ccc4cn[nH]c4c3)c2c1` (stereo not shown) [Example 377] it was 100 to 1000 nM; in that of `N#Cc1ccc(Cn2nccc2-c2cc3c(cc2F)nnn3-c2ccc3cn[nH]c3c2)cc1` [Example 378], below 100 nM; in that of `CC(c1ccc(Cl)c[n+]1[O-])n1nccc1-c1cc(Cl)c2nnn(-c3ccc4cn[nH]c4c3)c2c1` (stereo not shown) [Example 379], 100 to 1000 nM.
Consider `Cc1ccc(C(C)n2nccc2-c2cc(Cl)c3nnn(-c4ccc5cn[nH]c5c4)c3c2)nc1` (stereo not shown) [Example 380], for which the IC50 fell in the range of 100 to 1000 nM.
On to `Cc1ccc(Cn2nccc2-c2cc(Cl)c3nnn(-c4ccc5cn[nH]c5c4)c3c2)[n+]([O-])c1` [Example 381], for which the 50% inhibitory concentration (IC50) is below 100 nM.
For the molecule `CC(c1ccc(C#N)cc1)n1nccc1-c1cc2c(cc1F)nnn2-c1ccc2cn[nH]c2c1` (stereo not shown) [Example 382], the IC50 lay in the range of 100 to 1000 nM.
On to `CC(c1ccc(Cl)cn1)n1nccc1-c1cc2c(cc1F)nnn2-c1ccc2cn[nH]c2c1` (stereo not shown) [Example 383], for which the IC50 was in the range of 100 to 1000 nM.
On to `Cc1cc2nnn(-c3ccc4cn[nH]c4c3)c2cc1-c1ccnn1Cc1ccc(C#N)cc1` [Example 384], for which the concentration for half-maximal inhibition (IC50) was 100 to 1000 nM.

The values above are taken from US11931343B2 (ARCUS BIOSCIENCES, INC., priority 2018, dated 2024).
